Source: US9345682B2, “Inhibition of STAT3 signal transduction for human cancer therapy” (University of South Florida, priority 1999, dated 2016)
“Also recorded” adds a separate entry of the source.

What was measured:
U266 cells = assay: Fas-mediated apoptosis (Annexin V, flow cytometry) in U266 cells; type: cell-based, human
Experimental: For surface detection of the Fas receptor, 10^6 cells are suspended in […] PBS with 2.5 mg/ml mouse IgM (Sigma) and […] UB2 antibody (MBL) or IgG1, isotype control serum (Dako). Following 30 min incubation at room temperature, cells are washed with PBS, and incubated in the dark for 30 min with goat anti-mouse Ig-FITC. Fluorescence is measured on a FACScan flow cytometer and analyzed using CellQuest software (Becton Dickinson). For cell cycle analysis, 10^6 cells are fixed in ice-cold ethanol for a minimum of 2 h, washed with PBS, and stained with 5 mg/ml propidium iodide (PI) and […] at 37° C. for 30 min prior to analysis by flow cytometry. […] Apoptosis is measured by staining with Annexin V-FITC (Clontech) and flow cytometry analysis. Fas-specific death is calculated as (% Annexin V positive cells in the CH-11 treated population)−(% Annexin V positive cells in the IgM control population). Programmed cell death in cells transfected with the bicistronic green fluorescent protein vectors (pIRES-EGFP or pIRES-Stat3b) is analyzed after staining with Annexin V-PE (Pharmingen) by two color flow cytometry analysis. Apoptotic morphology of DAPI-stained nuclei and green/red fluorescence is confirmed by fluorescence microscopy.

Bcl-xL = Bcl-xL expression (RT-PCR, Western blot) in U266 cells; type: cell-based, human; parameters: dose or concentration left out as unconfirmed
Experimental: Cells are lysed in a buffer composed of 50 mM Tris-Cl, pH 7.4, 5 mM EDTA, 150 mM NaCl, and 0.5% Triton-X 100 containing 1 mg/ml leupeptin and aprotinin, and 1 mM PMSF. Protein content of the cell lysates is quantified by the Bradford assay (Bio-Rad), and […] total protein is dissolved in Laemmli SDS-PAGE sample buffer prior to separation by 10% SDS-PAGE. Proteins are transferred to PVDF membrane and Western blot analysis is performed by standard techniques with ECL detection (Amersham). The Bcl-xL antibody, clone 124 (Dako), is used at a 1:2000 dilution. The Bcl-xL, antibody, clone S-18 (Santa Cruz Biotechnology), is used at a 1:500 dilution. Blots are quantified by densitometry and expression levels were normalized to b-actin (Sigma).
Total RNA is isolated by lysis in guanidine isothiocyanate followed by centrifugation through a cesium chloride gradient. cDNA is prepared from 200 ng of total RNA in a […] reaction with AMV-RT (Boehringer-Mannheim). […] Tem ml of PCR products are electrophoresed on a 5% acrylamide gel and quantified by phosphorimaging using ImageQuant software (Molecular Dynamics).

peritoneal macrophages = assay: Cytostatic activity of peritoneal macrophages against J558 myeloma cells; parameters: species or system mice; details: daily i.p. in vivo treatment
Experimental: Peritoneal macrophage preparation and cytostatic test. […] The peritoneal macrophage population is enriched by adhesion on plastic plates followed by washing and aspiration of non-adherent cells. The percentage of macrophages among adherent cells is estimated by morphological criteria using Giemsa staining (>95%). Antitumor cytostatic activity of macrophages is determined by inhibition of DNA synthesis of target tumor cells (J558 myeloma cells). Briefly, macrophage-sensitive J558 cells (2×10^4/well) are co-cultured for 48 hours with and without macrophages (2×10^5/well) prepared from individual mice. To estimate DNA synthesis, the cells are pulsed with ^3H-thymidine (^3H-TdR) ([…]) during the last 6 hours of incubation. ^3H-TdR incorporation is determined using a liquid scintillation b-counter (Pharmacia Wallac, Finland). Results are expressed as percentage of inhibition of ^3H-TdR incorporation by J558 cells incubated with macrophages compared to ^3H-TdR incorporation by J558 cells incubated in medium alone.

MOPC tumors = assay: MOPC myeloma tumor growth in vivo; parameters: species or system BALB/c mice
Experimental: (§1) Mice and tumor formation in vivo. Six- to eight-week old female BALB/c mice are obtained from the National Cancer Institute (Frederick, Md.). Cohorts of 3-5 mice per group are used for these experiments. Mice are shaved on the right flank and injected subcutaneously (s.c.) with 5×10^5 of either MOPC or MPC11 cells in […] of PBS to induce tumors.
(§2) In vivo treatment with AG-490 and IL-12. When tumors reach about 5 […] in diameter, AG-490 treatment of tumors is initiated and continued daily for 7-10 days. For MOPC tumors, injections of 0.85 mg/day of AG-490 are given intratumorally, supplemented with 0.5 mg/day of AG-490 i.p. For MPC11 tumors, the intratumoral treatment is halved while the i.p. dose remains the same. Control mice receive 50% DMSO vehicle alone in the same volume as the AG-490 treatment group. Recombinant IL-12 is given s.c. at either 100 ng or 200 ng every other day. Tumor growth is monitored daily by measuring two perpendicular tumor diameters with a caliper, and tumor volume was calculated according to the formula V=0.52*a*b(a+b)/2 (a=smallest superficial diameter; b=largest superficial diameter).

MPC11 tumors = assay: MPC11 myeloma tumor growth in vivo; parameters: species or system BALB/c mice
Experimental: as §1, §2

[1] = tested on: IL-12-activated peritoneal macrophages; assay: Viability of IL-12-activated peritoneal macrophages (MTT); type: cell-based, mice; details: 50 mM AG-490
Experimental: In vitro IL-12 activation and AG-490 treatment of macrophages. Peritoneal macrophages (2×10^5/well) are incubated in medium supplemented with either PBS, or rIL-12 (2 ng/ml), or AG-490 ([…]). Forty-eight hours later, the cultures are renewed by addition of fresh medium with either AG-490 or rIL-12 or PBS. Activation of macrophages is determined by nitric oxide production. Macrophage viability is determined by cleavage of tetrazolium salt in an MTT assay.

N#C/C(=C\c1ccc(O)c(O)c1)C(=O)NCc1ccccc1 [AG490]
Fas-specific apoptosis (U266 cells; AG490 24 hours then CH-11 12 hours, 7 independent experiments): 18-41% | cells undergoing apoptosis (U266 cells; AG490 24 hours then CH-11 additional 12 hours): up to 90% | bcl-x mRNA expression (Bcl-xL; AG490, 24 hours): significant reduction | Bcl-xL protein levels (Bcl-xL; AG490, 30 hours): nearly absent | IL-12-induced cytostatic activity of peritoneal macrophages against target tumor cells (peritoneal macrophages): does not influence | time to complete regression of all treated tumors (MOPC tumors; 5-mm pre-existing MOPC tumors, AG-490 0.85 mg/day intratumorally plus 0.5 mg/day i.p.): 3 to 8 days | tumor regrowth after regression (MOPC tumors; MOPC tumors, AG-490 treated mice): tumor regrowth is observed in all of the AG-490 treated mice except for one | time to tumor regrowth or metastasis after termination of treatment (MPC11 tumors; MPC11 tumors): 4 to 7 days | MPC11 tumor response (MPC11 tumors; pre-existing MPC11 tumors, all treated mice): rapid rejection; also recorded: all of the tumors in AG-490-treated mice regressed | cell death of IL-12-activated peritoneal macrophages [1]: no cell death is detected
